Results: US7476729B2, “Dbait and uses thereof” (Institut Curie, priority 2003, dated 2009)

Key:
SK28 xenografted tumors = experiment: Radiosensitization of SK28 melanoma xenografted on nude mice; assay type: in vivo; settings: SK, 6 × 5 Gy, 6 × 60 μg (3 nmole); for Relative risk: reference C* (Mock + irradiation)
Protocol: The protocol of Hep2 was described in FIG. 4.3. Other tumors were treated by a modified protocol where a 5 Gy fractionated irradiation was applied in three consecutive days, and followed four day rest, and the treatment was repeated once. The total irradiation dose (6×5 Gy) is equal to that of the protocol used to treat Hep2 tumor (15×2 Gy).
Descriptive analyses of the tumor response were performed for each treatment and each tumor type. Day 1 was the day of the first treatment session. […] Median lifetime was estimated according to the Kaplan-Meier method. TGD was calculated by subtracting the mean tumor volume quadrupling time of the control group from tumor volume quadrupling times of individual mice in each treated group. The mean TGD was calculated for each treated group using the individual measurements.
The analysis used S-Plus 6.2 version software (MathSoft Inc., Seattle, Wash.) and statEL (ad Science, Paris, France). A global Log Rank was first performed for each group with a same tumor type. Then treatments with Dbait were compared to the mock-treated control. All tests were considered significant at the 0.05 significance level.

GMA32 cells = experiment: FACS analysis of sub-G1 cells (cell death) in GMA32 cells; assay type: cell-based, Chinese hamster; settings: GMA32, 4.5 μg Dbait with lipofectamine, no irradiation or mitotic inhibitor
Protocol: The GMA32 Chinese hamster fibroblast cells permissive of DNA breaks were maintained in MEM medium (Gibco) supplemented with 1 mM sodium pyruvate, 2 mM glutamine, 1×MEM non essential amino acids, 1× penicillin/streptomycin and 10% horse serum. Typically, 2×10^5 to 4×10^5 cells were seeded in medium without antibiotics, in 5 cm diameter Petri dishes 24 hours before the transfection of different Dbait molecules (4.5 μg) with lipofectamine 2000 (LifeTechnologies) as transfection agent (in a 1:3 ratio), according to the manufacturer's instructions. At the end of the transfection the cells were either irradiated (4 Gy) or treated with mitotic inhibitors: nocodazole (200 nM), navelbine (100 nM) or taxol (200 nM).
About 16 hour later the drug was removed and the cells were allowed to recover. Cell irradiation was performed with γ-rays from a ^137Cs source. After a 24 hours recovery, the cells were collected and used either for FACS, western blot analyses or to determine the clonogenicity (survival) and the effect of each treatment.
The M1 phase represents the percentage of cells in sub-G1 stage indicative of cell death.
The experiments were performed with a FACS calibur flow cytometer (Becton Dickinson). Cells were collected, suspended in 1 ml of cold GM buffer (6.5 mM glucose, 137 mM NaCl, 5.4 mM KCl, 2 mM Na2HPO4, 1 mM KHPO4, 0.5 mM EDTA), and stored at 4° C. for at least 2 hours after addition of 3 ml of cold 100% ethanol.
At that stage, cells were eventually washed with 1×PBS, then stained for 30 minutes at room temperature in PI solution (50 μg/ml propidium iodide, 25 μg/ml RNase A in 1×PBS buffer). 10,000 events were analyzed with Cellquest software, and cell aggregates were gated out. The percentage of cells with a sub-G1 content of DNA was scored.

DNA-PK = biological target: T1, DNA-PK (Homo sapiens, UniProt P12956+P13010+P78527); experiment: DNA-dependent protein kinase (DNA-PK) activity assay in Hep2 nuclear extract; assay type: biochemical; settings: 2 μg Dbait, 1.5 μg Hep2 nuclear protein extract
T1 construct: Increasing amounts of Hep2 nuclear extract (cleaned of endogenous DNA by DEAE-Sepharose filtration) were assayed; endogenous in cells; host or cells: Hep2 cells (nuclear extract, DNA removed by DEAE-Sepharose filtration)
Protocol: DNA-PK activity was monitored using the kit SignaTECT DNA-dependent Protein Kinase Assay System (Promega, Madison, USA). Increasing amounts of Hep2 nuclear extract (cleaned of endogenous DNA by DEAE-Sepharose filtration) were assayed in the presence of 250 nM Dbait. Extract, biotinylated peptide substrate and various amount of nuclear extract were incubated 5 minutes at 30° C. with (γ-^32P)ATP according to manufacturer indications. The biotinylated substrate was capture on streptavidine membrane, washed and counted in a scintillation counter. Percentage of phosphorylation is calculated by dividing the bound radioactivity by the total count of (γ-^32P)ATP per sample. Reactions (10 μl) were carried out in 60 mM KOAc, 100 μg/ml BSA, 0.5 mM Mg(Cl)2, 1 μl T4 DNA ligase 10× buffer (Promega, Madison, USA). Nuclear extract and Dbait were incubated 2 minutes before addition of ^32P-labeled DNA (10 ng). Samples were incubated various time at 37° C. before ligation being stopped by 20 mM EDTA and 1 mg/ml Proteinase K addition. Ligation products were analyzed by electrophoresis through 0.7% agarose gels followed by autoradiography and quantification by phosphorimaging.
The kinase activity depended directly on the length and structure of the double-stranded ‘stem’ of the Dbait molecule. […] In addition, various backbone modifications (phosphothioate, methyphosphonate, 3′-3′ linkage) at the free blunt end (up to 3-bp), as well as the internally tagged ligands (e.g. fluorescent dyes), are capable of activating DNA-PK activity.

| Substance | Mean % TGD (SK28 xenografted tumors) [%] | Mean TGD (SK28 xenografted tumors) | Median survival time (SK28 xenografted tumors) [days] | Relative risk (SK28 xenografted tumors) | cell death (cells in sub-G1 stage) (GMA32 cells) | DNA-PK activation (kinase activity) (DNA-PK) | Number of cured mice (SK28 xenografted tumors) |
| --- | --- | --- | --- | --- | --- | --- | --- |
| Dbait8H: hairpin double strand DNA with a stem of 8-bp (DNA ACGCACGG; DNA, backbone not given here; hairpin, hexaethyleneglycol loop, 3-bp phosphorothioate at free blunt end) | 194 | 19 | 76 | 0.68 | failed to trigger cell death | inefficient | – |
| Dbait16H: hairpin double strand DNA with a stem of 16-bp (DNA ACGCACGGGTGTTGGG; DNA, backbone not given here; hairpin DNA with hexaethyleneglycol loop, 3-bp phosphorothioate at free blunt end) | – | – | – | – | intermediate | inefficient | – |
| Dbait32H: hairpin double strand DNA with a stem of 32-bp, hexaethyleneglycol linker, phosphorothioate at the free blunt end (DNA ACGCACGGGTGTTGGGTCGTTTGTTCGGATCT; DNA, backbone not given here; hairpin, hexaethyleneglycol loop, 3-bp phosphorothioate at free blunt end) | 422 | 64 | 176 | 0.22 | Significant cell death | – | 2 |
| Dbait32ss: 32-nt single strand DNA (SEQ ID NO: 1) (DNA ACGCACGGGTGTTGGGTCGTTTGTTCGGATCT; DNA, backbone not given here) | – | – | – | – | moderate | – | – |
